# According to patent US20190322676A1, “CERAMIDE GALACTOSYLTRANSFERASE INHIBITORS FOR THE TREATMENT OF DISEASE” (BioMarin Pharmaceutical Inc., priority 2016, published 2019):
# Structures can show the parent of a compound that is named as a salt.
# Target: T1, human CGT (ceramide galactosyltransferase), CHO/CGT lysate (Homo sapiens, UniProt Q16880)
# T1 construct: Full-length human CGT cDNA was cloned into the BamH1/Xho1 site of pcDNA3.1 (+); expressed in transfected cells; host or cells: Chinese hamster ovary (CHO) cells; lysate prepared with M-PER
# T1 sequence (Q16880 21-541): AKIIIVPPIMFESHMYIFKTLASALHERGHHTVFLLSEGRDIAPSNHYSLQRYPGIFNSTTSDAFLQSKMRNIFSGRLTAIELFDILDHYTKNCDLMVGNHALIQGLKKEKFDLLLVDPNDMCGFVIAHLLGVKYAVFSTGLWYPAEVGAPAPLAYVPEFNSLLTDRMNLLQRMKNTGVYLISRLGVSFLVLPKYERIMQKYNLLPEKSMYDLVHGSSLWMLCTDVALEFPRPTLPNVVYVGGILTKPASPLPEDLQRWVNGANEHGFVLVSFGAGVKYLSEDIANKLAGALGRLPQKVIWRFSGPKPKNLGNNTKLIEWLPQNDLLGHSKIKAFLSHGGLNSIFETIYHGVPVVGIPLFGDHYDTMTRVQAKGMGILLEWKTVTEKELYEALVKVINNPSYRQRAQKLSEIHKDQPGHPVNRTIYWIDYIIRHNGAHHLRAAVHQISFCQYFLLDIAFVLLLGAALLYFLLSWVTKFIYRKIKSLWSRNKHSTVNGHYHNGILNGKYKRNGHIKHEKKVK
# Assay: CGT enzyme assay, RapidFire/MS/MS readout with 0.01% Tween added (Table 1 ranges with two asterisks **)
# Type: biochemical
# Settings: CGT enzymatic assay; range with two asterisks (**): RapidFire/MS/MS method with 0.01% Tween added
# Procedure: Full-length human CGT cDNA was cloned into the BamH1/Xho1 site of pcDNA3.1 (+) mammalian expression vector (V90-20, Invitrogen, Carlsbad, Calif.) and the plasmid was transfected into Chinese hamster ovary (CHO) cells. Lysate was prepared using M-PER (Mammalian Protein Extraction Reagent, ThermoFisher Scientific, Grand Island, N.Y.) in the presence of a protease inhibitor cocktail (P8340, Sigma, Saint Louis, Mo.). Each 100 mm dish (100% confluent, approximately 1×10^7 cells) was lysed with 250 μL of M-PER containing protease inhibitors. Protein concentration was determined using a Pierce BCA protein assay kit (ThermoFisher Scientific). Four micrograms of CHO/CGT lysate was incubated with various concentrations of a compound (0.001 μM-50 μM) in 10 mM HEPES (pH 7.2) containing 35 μM dioleoylphosphatidylcholine, 5 mM MgCl2, 5 mM MnCl2, 1% BSA, 15 mM KCl, 1 mM EGTA, 8 mM CHAPS, 10 μM C6-NBD-dihydro-ceramide and 17.5 μM UDP-galactose in a final reaction volume of 20 μL at 37° C. for 1 hour. The final concentration of DMSO was 0.5% in both compound-treated and mock-treated samples. Tween 80 (0.01%) was optionally added to the reaction mixture to help solubilize the compounds. Each individual reaction was diluted with 80 μL of methanol:acetronitrile (1:3) containing 5 μM N-docdecanoyl-NBD-galactosylceramide (internal standard) to stop the reaction. 200 μL H2O:acetonitile (1:1) was added to precipitate the protein. After sufficient mixing, the plates were centrifuged at 2469 g for 38 minutes, 200 μL of supernatant was transferred to a LC/MS 96-deep well plate and a second spin was performed at 2469 g for 10 minutes. The final supernatant was injected in triplicate for RapidFire/MS/MS analysis.
# Quantitative Analysis Using the RapidFire/MS/MS Method:
# The quantitative analysis of C6-NBD-dihydro-ceramide and C6-NBD-dihydro-galactosylceramide was performed on a Rapid Fire 360 high-throughput mass spectrometry system (Agilent Technologies, Palo Alto, Calif.) coupled with a API4000^+ triple quadrupole mass spectrometer (Applied Biosystems, Concord, Ontario, Canada). RapidFire software packages, including RapidFire Control panel, RapidFire UI and RapidFire Integrator (Agilent Technologies), were used to control the RapidFire instrument and to process data. Analyst 1.6.2 software packages (Applied Biosystems) were used to control the MS system and acquire MS data. […] of sample was loaded on a micro-scale C4 solid-phase extraction (SPE) cartridge (Agilent Technologies) and salts were removed using water supplemented with 0.1% formic acid at the flow rate of 1.5 mL/min for 3 sec. C6-NBD-dihydro-ceramide and C6-NBD-dihydro-galactosylceramide were co-eluted into the mass spectrometer using acetonitrile containing 0.1% formic acid at the flow rate of 1.0 mL/min for 3 sec. The total cycle time of one injection was 8 secs. The MS/MS detection was performed in ESI negative mode. The mass transition of C6-NBD-dihydro-galactosylceramide was m/z 752.6→678.6 using a −40 V collision energy, the mass transition of C6-NBD-dihydro-ceramide was m/z 590.6→115.8 using a −40 V collision energy and the mass transition of N-docdecanoyl-NBD-galactosylceramide was m/z 820.9→746.3 using a −45 V collision energy.
# The C6-NBD-dihydro-galactosylceramide reading was normalized first by dividing the peak area of C6-NBD-dihydro-galactosylceramide by the peak area of the internal standard, N-docdecanoyl-NBD-galactosylceramide. IC50 values (see Table 1, where data ranges with one asterix (*) correspond to analysis using the RapidFire/MS/MS method, and data ranges with two asterixes (**) correspond to analysis using the RapidFire/MS/MS method with 0.01% Tween added) were generated from sigmoidal dose-response curves (variable slope) with GraphPad Prism software (GraphPad Software, Inc., San Diego, Calif.) using the normalized peak areas of C6-NBD-dihydro-galactosylceramide or the percent inhibition of C6-NBD-dihydro-galactosylceramide accumulation relative to DMSO control. […]
row,Compound,IC50
1,"O=C([C@H](NS(=O)(=O)c1ccc2cc(OC3CCCC3)ccc2c1)C(F)(F)c1ccc(-c2ccc(Cl)cc2)cc1)N1CCC12CNC2 [Compound 191-2, (S)-N-(1-(4′-chloro-[1,1′-biphenyl]-4-yl)-1,1-difluoro-3-oxo-3-(1,6-diazaspiro[3.3]heptan-1-yl)propan-2-yl)-6-(cyclopentyloxy)naphthalene-2-sulfonamide]",1 to 10 µM
2,"NC1CCN(C(=O)[C@@H](NS(=O)(=O)c2ccc3cc(OC4CCCC4)ccc3c2)C(F)(F)c2ccc(-c3ccc(Cl)cc3)cn2)CC1 [Compound 162-1, (R)—N-(3-(4-aminopiperidin-1-yl)-1-(5-(4-chlorophenyl)pyridin-2-yl)-1,1-difluoro-3-oxopropan-2-yl)-6-(cyclopentyloxy)naphthalene-2-sulfonamide]",1 to 10 µM
3,"NC(=O)C1CCN(C(=O)[C@@H](NS(=O)(=O)c2ccc3cc(OC4CCCC4)ccc3c2)C(F)(F)c2ccc(-c3ccc(Cl)cc3)cc2)CC1 [Compound 173-1, (R)-1-(3-(4′-chloro-[1,1′-biphenyl]-4-yl)-2-((6-(cyclopentyloxy)naphthalene)-2-sulfonamido)-3,3-difluoropropanoyl)piperidine-4-carboxamide]",1 to 10 µM
4,"N[C@H]1[C@@H]2CC[C@H]1CN(C(=O)[C@@H](NS(=O)(=O)c1ccc3cc(OC4CCCC4)ccc3c1)C(F)(F)c1ccc(Cl)cc1)C2 [Compound 150-1, N—((R)-3-((1R,5S,8R)-8-amino-3-azabicyclo[3.2.1]octan-3-yl)-1-(4-chlorophenyl)-1,1-difluoro-3-oxopropan-2-yl)-6-(cyclopentyloxy)naphthalene-2-sulfonamide trifluoroacetate]",< 1 µM
5,"O=C([C@H](NS(=O)(=O)c1ccc2cc(OC3CCCC3)ccc2c1)C(F)(F)c1ccc(-c2ccc(Cl)cc2)cc1)N1CC[C@H]2CNC[C@H]21 [Compound 192-4, N-((S)-1-(4′-chloro-[1,1′-biphenyl]-4-yl)-1,1-difluoro-3-((3aS,6aS)-hexahydropyrrolo[3,4-b]pyrrol-1(2H)-yl)-3-oxopropan-2-yl)-6-(cyclopentyloxy)naphthalene-2-sulfonamide]",30 to 100 µM
6,"O=C([C@@H](NS(=O)(=O)c1ccc2cc(OC3CCCC3)ccc2c1)C(F)(F)c1ccc(-c2ccc(Cl)cc2)cc1)N1CC[C@@H]2CNC[C@@H]21 [Compound 192-3, N-((R)-1-(4′-chloro-[1,1′-biphenyl]-4-yl)-1,1-difluoro-3-((3aR,6aR)-hexahydropyrrolo[3,4-b]pyrrol-1(2H)-yl)-3-oxopropan-2-yl)-6-(cyclopentyloxy)naphthalene-2-sulfonamide]",< 1 µM
7,"NC(=NO)C1CCN(C(=O)[C@H](NS(=O)(=O)c2ccc3cc(OC4CCCC4)ccc3c2)C(F)(F)c2ccc(-c3ccc(Cl)cc3)cc2)CC1 [Compound 174-2, (S)-1-(3-(4′-chloro-[1,1′-biphenyl]-4-yl)-2-((6-(cyclopentyloxy)naphthalene)-2-sulfonamido)-3,3-difluoropropanoyl)-N′-hydroxypiperidine-4-carboximidamide]",30 to 100 µM
8,"NC1CCN(C(=O)[C@H](NC(=O)C(=O)c2cc3ccc(OC4CCCC4)cc3s2)C(F)(F)c2ccc(-c3ccc(Cl)cc3)cc2)CC1 [Compound 175-2, (S)—N-(3-(4-aminopiperidin-1-yl)-1-(4′-chloro-[1,1′-biphenyl]-4-yl)-1,1-difluoro-3-oxopropan-2-yl)-2-(6-(cyclopentyloxy)benzo[b]thiophen-2-yl)-2-oxoacetamide trifluoroacetate]",30 to 100 µM

# Further lines, results first:
row,IC50,Compound
1,30 to 100 µM,"NC1CCN(C(=O)[C@H](NS(=O)(=O)c2ccc(OCC3CCCCC3)cc2)C(F)(F)c2ccc(-c3ccccc3)cc2)CC1 [Compound 156-2, (S)—N-(1-([1,1′-biphenyl]-4-yl)-3-(4-aminopiperidin-1-yl)-1,1-difluoro-3-oxopropan-2-yl)-4-(cyclohexylmethoxy)benzenesulfonamide trifluoroacetate]"
2,1 to 10 µM,"N[C@H]1CCN(C(=O)[C@@H](NS(=O)(=O)c2ccc(OCC3CCCCC3)cc2)C(F)(F)c2ccc(-c3ccc(Cl)cc3)cc2)C1 [Compound 171-1, N—((R)-3-((S)-3-aminopyrrolidin-1-yl)-1-(4′-chloro-[1,1′-biphenyl]-4-yl)-1,1-difluoro-3-oxopropan-2-yl)-4-(cyclohexylmethoxy)benzenesulfonamide trifluoroacetate]"
3,1 to 10 µM,"N[C@@H]1CCN(C(=O)[C@H](NS(=O)(=O)c2ccc3cc(OC4CCCC4)ccc3c2)C(F)(F)c2ccc(-c3ccc(Cl)cc3)cc2)C1 [Compound 149-2, N—((S)-3-((R)-3-aminopyrrolidin-1-yl)-1-(4′-chloro-[1,1′-biphenyl]-4-yl)-1,1-difluoro-3-oxopropan-2-yl)-6-(cyclopentyloxy) naphthalene-2-sulfonamide trifluoroacetate]"
4,1 to 10 µM,"O=C([C@@H](NS(=O)(=O)c1ccc(OCC2CCCCC2)cc1)C(F)(F)c1ccc(-c2ccc(Cl)cc2)cc1)N1CCNCC1 [Compound 151-1, (R)—N-(1-(4′-chloro-[1,1′-biphenyl]-4-yl)-1,1-difluoro-3-oxo-3-(piperazin-1-yl)propan-2-yl)-4-(cyclohexylmethoxy)benzenesulfonamide trifluoroacetate]"
5,1 to 10 µM,"NC1CCN(C(=O)[C@H](NS(=O)(=O)c2ccc(OCC3CCCCC3)cc2)C(F)(F)c2cccc(-c3ccc(Cl)cc3)c2)CC1 [Compound 181-2, (S)—N-(3-(4-aminopiperidin-1-yl)-1-(4′-chloro-[1,1′-biphenyl]-3-yl)-1,1-difluoro-3-oxopropan-2-yl)-4-(cyclohexylmethoxy) benzenesulfonamide trifluoroacetate]"
6,1 to 10 µM,"N[C@@H]1CCN(C(=O)[C@H](NS(=O)(=O)c2ccc(OCC3CCCCC3)cc2)C(F)(F)c2ccc(-c3ccc(Cl)cc3)cc2)C1 [Compound 155-2, N—((S)-3-((R)-3-aminopyrrolidin-1-yl)-1-(4′-chloro-[1,1′-biphenyl]-4-yl)-1,1-difluoro-3-oxopropan-2-yl)-4-(cyclohexylmethoxy) benzenesulfonamide trifluoroacetate]"
7,1 to 10 µM,"COc1cc(C(F)(F)[C@@H](NS(=O)(=O)c2ccc(OCC3CCCCC3)cc2)C(=O)N2CCC(N)CC2)ccc1-c1ccc(Cl)cc1 [Compound 146-2, (S)—N-(3-(4-aminopiperidin-1-yl)-1-(4′-chloro-2-methoxy-[1,1′-biphenyl]-4-yl)-1,1-difluoro-3-oxopropan-2-yl)-4-(cyclohexylmethoxy)benzenesulfonamide trifluoroacetate]"
